Target: T1, native AQP4 in primary cultures of astroglia (Rattus norvegicus, UniProt P47863)
T1 construct: endogenous in cells; host or cells: rat primary hippocampal astroglial cultures
Experiment: Astroglial swelling in primary hippocampal cultures after 50% hypotonic saline
Type: cell-based
Conditions: 100 μM extracellular, 15 min preincubation
Protocol: The role of native AQP4 as a target of block by bumetanide was tested in primary cultures of astroglia (FIG. 4). We compared the swelling responses of rat astroglial cells in primary hippocampal cultures after 15 min preincubation with or without drug. Swelling was induced by rapid perfusion of the culture plate with 50% hypotonic saline, either with or without extracellular bumetanide (100 μM) to match the preincubation condition. Glial cells were identified by morphological comparison with cells positive for a glial-specific marker (GFAP). Time-lapse images were taken at 15 second intervals before and during hypotonic challenge. The response was determined by the change in soma area as a function of time, as visualized by time-lapse digital imaging (Olympus MagnaFire™ camera and image acquisition software) using an inverted phase contrast microscope (Nikon); data were analyzed by Scion Image (NIH) software. Each culture was used for only one swelling trial. […]
FIG. 3 illustrates the protective effect of bumetanide on astroglial swelling in primary hippocampal cultures (14-15 days in vitro) after exposure to 50% hypotonic saline at time zero. Plot (left): Cell area visualized by phase contrast microscopy, standardized to the initial volume quantified by Scion Image (NIH) software. […]

T1 sequence (P47863 whole entry): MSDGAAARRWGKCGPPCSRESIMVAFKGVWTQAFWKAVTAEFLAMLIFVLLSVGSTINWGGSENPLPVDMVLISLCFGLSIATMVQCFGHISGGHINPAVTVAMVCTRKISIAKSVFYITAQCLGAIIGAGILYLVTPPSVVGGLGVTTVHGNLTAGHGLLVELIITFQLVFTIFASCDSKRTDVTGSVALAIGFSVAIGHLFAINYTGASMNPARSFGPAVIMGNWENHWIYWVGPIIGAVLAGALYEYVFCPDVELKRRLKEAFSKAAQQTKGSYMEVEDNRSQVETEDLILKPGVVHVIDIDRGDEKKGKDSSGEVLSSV

CCCCNc1cc(C(=O)O)cc(S(N)(=O)=O)c1Oc1ccccc1 [bumetanide]
glial initial swelling (soma area): reduced
regulatory volume decrease (RVD): reduced
